The values below come from publication PMC3472974, “The Bite of the Honeybee: 2-Heptanone Secreted from Honeybee Mandibles during a Bite Acts as a Local Anaesthetic in Insects and Mammals” (PLoS ONE, 2012).

The term logP denotes a log measure of how a compound divides between an organic and an aqueous phase.

In one data set the test system is rat. The note with it: oral rat; no reference given; cited from earlier work.
Data set [1] deals with honeybees. In words: Recruitment of defensive honeybees at the colony entrance, BeeSCAN counters. It is filed as in vivo, Apis mellifera. The note with it: control 46.42. On the procedure:
We first tested the dominant hypothesis that honeybees secrete 2-H as an alarm pheromone that recruits other honeybees in the face of a potential threat. We monitored honeybee response to different doses of 2-H applied at colony entrances. In control colonies, which were not exposed to 2-H, an average of 46.42 bees left the colony per minute (n = 5, SEM = 0.43). There was no statistical difference, 10 minutes after application, between the mean number of bees recruited in control colonies and those recruited in colonies exposed to 0.1 µL 2-H (mean = 47.18, n = 5, SEM = 0.36, p = 1.000). In contrast, higher doses of 2-H acted as a repellent.
We conducted field experiments at the apiary, in which we used electronic monitoring devices (BeeSCAN v2.03) to test whether the presence of 2-H on the colony flight boards stimulated recruitment of defensive honeybees. The monitoring devices counted the number of honeybees exiting the beehive once per minute for 10 minutes for each of the five colonies per treatment. […] To apply 2-H, we followed the standard methodology described in previous experiments.

In the next data set the test system is nerves of the rat tail. The arrangement: method as in PMID 6093852. The conditions noted are these: cited from earlier work.
Data set [2] deals with honeybees. The arrangement: method as in earlier work. The note with it: cited from earlier work.
Data set [3] has as its system wax moth larvae (WML). Put plainly: GC-MS quantification of 2-H in wax moth larvae bitten by honeybees. It is filed as in vivo, Galleria mellonella. The conditions noted are these: extracted after full recovery, n = 10. From the text: We measured the 2-H content of the following types of samples: a) isolated honeybee mandibular glands (n = 30); b) wax moth larvae (WML; body weight of around 0.01 g) that had been bitten by honeybees (n = 30) –2-H extracted immediately after paralysis; c) WML that had been bitten by honeybees (n = 10) –2-H extracted after full recovery; d) non-bitten WML (controls, n = 10).
To optimize the detection of 2-H, all samples were 1) treated with liquid nitrogen in order to stop any enzymatic process and ensure complete lyses of cell walls and then 2) extracted with ethanol. The extracts were centrifuged, filtered, and stored at −20°C until analysis.
Chromatographic analyses were carried out on a Hewlett Packard 6890 gas chromatographic model hyphenated to a Hewlett Packard 5973 mass selective detector using electron impact (70 eV) as the ionization source, further equipped with an Agilent 6890 autosampler. An HP 5MS (30 m×0.25 mm; film thickness 0.25 µm) column was used for the separations. Helium was used as the carrier gas (flow 0.8 ml/min). […] Thus, under the above chromatographic conditions, the Rt of 2-H was 8.47 min and the ions monitored at EI (70eV, full scan) were m/z 43, 58, 71, 85, 99 and 114. Quantification, however, was performed at Selected Ion Monitoring (SIM) mode and the ions were monitored at m/z 58 and 71. […]

The test system of data set [4] is wax moth larvae (WML). In words: Locomotory pattern of tethered wax moth larvae after injection. It is filed as in vivo, Galleria mellonella. The note with it: 2.5 µL injected (8.15 mg per 1 g body weight), larger WML body weight 0.25 g. From the text:
To monitor the constant locomotory pattern of WML, the probe of a force-displacement transducer (FT-03C, Grass Instrument Company, USA), attached to a micromanipulator, was hooked onto the tail of the WML, while the head was carefully pinned to a wax substrate, [14]. The electrical signal generated by the rhythmic force produced during locomotion was amplified and fed to a computer through a data acquisition card interface (Keithley KPCI 3102, Keithley Instruments, Cleveland, OH, USA). Software designed using the facilities of Labview (Labview 5.1, National Instruments USA) permitted analysis of the recorded data.

The conditions of data set [5]: no reference given; cited from earlier work.

Molecules are shown by their SMILES.

Consider `CCCCCC(C)=O` [2-H, 2-heptanone], for which the “acute LD50” value in the data set with rat was 1670 mg/kg. Further, in the data set on honeybees [1] (0.1 µL 2-H at colony entrance, 10 minutes after application, p = 1.000), the “mean number of bees leaving the colony per minute” value is 47.18 per minute. The “mean number of honeybees exiting the hive per minute” value in the data set with honeybees [1] (10 µL 2-H at colony entrance, p = 0.003) is on record as 42.54 per minute; in the data set on honeybees [1] (1000 µL 2-H at colony entrance, p = 0.002), 40.88 per minute. Also, the “neurotoxic effects in vivo” value in the data set with nerves of the rat tail is given as “no neurotoxic effects”. The “low concentration easily detectable by honeybees” value in the data set with honeybees [2] is listed as 4.049 µg/mL. Moreover, the “2-H detected in fully-recovered WML” value in the data set with wax moth larvae (WML) [3] is “no 2-H”. Moreover, in the data set on wax moth larvae (WML) [4], the “effect on locomotory pattern” value was “body movement stopped abruptly”. For the same molecule, the “recovery time of locomotory pattern” value in the data set on wax moth larvae (WML) [4] (n = 8) was found to be 87.62 min. Besides, in data set [5], the logP is recorded as 1.98.
